# According to PubChem BioAssay (NCI):
# Several values for one entry are separate records, joined by “and”; a condition that tells them apart may be missing. Equal entries are not always repeated.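 Protocol summary: plate cells (96-well), add compound at 5 concentrations, incubate 48 h, interpolate endpoints linearly. Abbreviation: GI50, concentration required for 50% inhibition of growth. TGI denotes the concentration required for complete inhibition of growth.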
# Key:
# Assay in all cases: growth of human tumour cells (NCI), 48 h
# A549 NSCLC = tested on: A549 NSCLC
# EKVX NSCLC = tested on: EKVX NSCLC
# K-562 leukemia = tested on: K-562 leukemia
# LOX IMVI melanoma = tested on: LOX IMVI melanoma
# MCF7 breast = tested on: MCF7 breast
# MDA-MB-231 breast = tested on: MDA-MB-231 breast
# MDA-MB-435 = tested on: MDA-MB-435
# OVCAR-3 ovarian = tested on: OVCAR-3 ovarian
# SK-MEL-2 melanoma = tested on: SK-MEL-2 melanoma
# TK-10 renal = tested on: TK-10 renal
SMILES,GI50 (A549 NSCLC),TGI (A549 NSCLC),GI50 (EKVX NSCLC),TGI (EKVX NSCLC),GI50 (K-562 leukemia),TGI (K-562 leukemia),GI50 (LOX IMVI melanoma),TGI (LOX IMVI melanoma),GI50 (MCF7 breast),TGI (MCF7 breast),GI50 (MDA-MB-231 breast),TGI (MDA-MB-231 breast),GI50 (MDA-MB-435),TGI (MDA-MB-435),GI50 (OVCAR-3 ovarian),TGI (OVCAR-3 ovarian),GI50 (SK-MEL-2 melanoma),TGI (SK-MEL-2 melanoma),GI50 (TK-10 renal),TGI (TK-10 renal)
O=C(/C=C/c1ccco1)Nc1ncc(Cc2cc(Cl)ccc2Cl)s1,0.108 µM,> 100 µM,0.161 µM,> 100 µM,0.0344 µM,> 100 µM,0.0762 µM,> 100 µM,0.0359 µM,> 100 µM,0.157 µM,> 100 µM,0.0191 µM,0.0449 µM,0.0294 µM,0.122 µM,0.148 µM,> 100 µM,6.88 µM,> 100 µM
COC(=O)[C@]12CC[C@@H](C)[C@H](C)[C@@H]1C1=CC[C@@H]3[C@@]4(C)C[C@@H](OC(C)=O)[C@H](OC(C)=O)[C@@](C)(COC(C)=O)[C@@H]4[C@H](O)C[C@@]3(C)[C@]1(C)CC2,2.06 µM,> 100 µM,2.14 µM,> 100 µM,0.356 µM,> 100 µM,0.54 µM,> 100 µM,1.57 µM,27.9 µM,1.91 µM,> 100 µM,1.86 µM,> 100 µM,2.3 µM,> 100 µM,1.85 µM,> 100 µM,3.08 µM,> 100 µM
CC1CCc2c(C(=O)Nc3ncc(Cc4cccc([N+](=O)[O-])c4)s3)csc2C1 (stereo not given),0.944 µM,> 100 µM,1.11 µM,> 100 µM,0.213 µM,> 100 µM,0.48 µM,> 100 µM,0.268 µM,> 100 µM,1.03 µM,> 100 µM,0.133 µM,0.45 µM,0.391 µM,2.25 µM,0.586 µM,> 100 µM,5.04 µM,> 100 µM
N#Cc1ccc2c(-c3ccnc(NC4CC4)n3)c(-c3ccc(F)cc3)nn2c1,> 25 µM,> 25 µM,> 25 µM,> 25 µM,> 25 µM,> 25 µM,> 25 µM,> 25 µM,> 25 µM,> 25 µM,> 25 µM,> 25 µM,> 25 µM,> 25 µM,> 25 µM,> 25 µM,> 25 µM,> 25 µM,> 25 µM,> 25 µM
COc1cc(/C=N/NC(=O)c2cnn3c2NC(c2ccccc2)C3)ccc1OCc1ccccc1 (stereo not given),1.17 µM,3.75 µM,1.48 µM,12.4 µM,0.293 µM,15.3 µM,0.573 µM,2.79 µM,0.365 µM,14.6 µM,2.17 µM,9.39 µM,0.158 µM,0.95 µM,0.331 µM,1.34 µM,1.32 µM,7.09 µM,1.76 µM,5.94 µM
COc1oc(C2C/C(=C/C(C)=C/C(C)=C/C(C)=C/c3ccc([N+](=O)[O-])cc3)CO2)c(C)c(=O)c1C (stereo not given),,68.3 µM,,82.6 µM,,21.3 µM,,23.4 µM,,19 µM,,38.9 µM,,42.4 µM,,54.9 µM,,> 75.8 µM,,> 45.6 µM
COc1cc2c3c(c4cc(OC)c(OC)cc4c2cc1OC)CN1CCC[C@H]1C3,,0.142 µM,0.0216 µM and < 0.01 µM,0.285 µM and 0.284 µM,,> 10 µM and 19.3 µM,,0.245 µM and 1.46 µM,,0.127 µM and 0.318 µM,,0.174 µM,0.0298 µM and < 0.0147 µM,0.494 µM and 1.29 µM,,0.379 µM and 1.15 µM,0.0297 µM and < 0.01 µM,,,0.103 µM and 0.497 µM
CC[C@H](C)[C@H](NC(=O)CN(C)C)C(=O)N(C)[C@H](C[C@@H](OC(C)=O)c1nc(C(=O)NC23C4C5C2C2C3C4C52C(=O)OC)cs1)C(C)C (stereo not given in full),2.12 µM,> 33.2 µM,2.54 µM,> 33.2 µM,0.138 µM,> 33.2 µM,0.321 µM,> 33.2 µM,0.134 µM,> 33.2 µM,0.352 µM,4.62 µM,0.0409 µM,1.07 µM,0.113 µM,1.31 µM,0.838 µM,> 33.2 µM,9.48 µM,> 33.2 µM
CCCCCn1sc(=O)n(Cc2ccc(CNC(=O)C(C)c3ccc(CC(C)C)cc3)cc2)c1=O (stereo not given),1.65 µM,4.26 µM,1.41 µM,2.82 µM,0.602 µM,> 61.1 µM,0.474 µM,1.52 µM,0.56 µM,2.26 µM,1.18 µM,2.46 µM,0.876 µM,2.17 µM,0.488 µM,1.63 µM,1.5 µM,2.98 µM,0.736 µM,2.05 µM
O=C(Nc1c[nH]c(=O)[nH]c1=O)Oc1ccccc1,,> 100 µM,,> 100 µM,,> 100 µM,,> 100 µM,,> 100 µM,,> 100 µM,,> 100 µM,,> 100 µM,,> 100 µM,,> 100 µM
COc1ccc2c(c1O)[C@@]13CCCC=C1[C@@H](C2)N(C)CC3,,> 100 µM,,> 100 µM,,> 100 µM,,> 100 µM,,> 100 µM,,> 100 µM,,> 100 µM,,> 100 µM,,> 100 µM,,> 100 µM
CCOC(=O)Nc1cc2c(c(N)n1)N=C(c1ccc(Cl)cc1Cl)CN2,,19.3 µM,,31.9 µM,,11.9 µM,,44.8 µM,,21.7 µM,,16.2 µM,,< 0.0239 µM,,0.0133 µM,,19.7 µM,,35.4 µM
COc1cc(F)c(F)c(Nc2ccc(I)cc2F)c1NS(=O)(=O)C1(CC(O)CO)CC1 (stereo not given),15.4 µM,> 64.9 µM,13.4 µM,57.2 µM,15.7 µM,> 81.7 µM,4.92 µM,17.6 µM,16.6 µM,43.7 µM,11 µM,27.3 µM,4.63 µM,22.3 µM,14.6 µM,36.4 µM,4.1 µM,18.8 µM,14.9 µM,72.1 µM
N#Cc1cnn(C(=O)c2nn(-c3ccc(Cl)cc3)cc2O)c1N,0.201 µM,16.5 µM,0.378 µM,10.4 µM,0.253 µM,,0.434 µM,12 µM,0.373 µM,10.5 µM,0.708 µM,19.2 µM,0.312 µM,18.9 µM,0.545 µM,8.44 µM,0.908 µM,18.9 µM,0.267 µM,7.34 µM
COc1cc2c(cc1O)CCN[C@@]21CS[C@H]2c3c(OC(C)=O)c(C)c4c(c3C(COC1=O)N1C2C2NC(Cc3cc(C)c(OC)c(O)c32)[C@@H]1O)OCO4 (stereo not given in full),0.000368 ng/mL,10.4 µM,0.000588 ng/mL,< 10 nM and 1.3e-05 µg/mL,4.5 ng/mL,11.3 µM and 0.0045 µg/mL,4.5 ng/mL,1970 ng/mL,,10.5 µM,,< 0.01 µM,,< 0.01 µM,0.000341 ng/mL,0.00531 ng/mL,4.5 ng/mL,< 10 nM and 0.0045 µg/mL,0.00184 ng/mL and 4.5 ng/mL,13.1 µM and 6.24 µg/mL
COC(=O)c1sc(-n2cnc3cc(OC)c(OC)cc32)cc1OCc1ccccc1C(F)(F)F,> 25 µM,> 25 µM,> 25 µM,> 25 µM,> 25 µM,> 25 µM,> 25 µM,> 25 µM,> 25 µM,> 25 µM,5.79 µM,> 25 µM,> 25 µM,> 25 µM,> 25 µM,> 25 µM,> 19 µM,> 25 µM,11 µM,> 25 µM
COc1cc(C2c3cc4c(cc3[C@@H](Nc3ccc(F)cc3)C3COC(=O)[C@H]23)OCO4)cc(OC)c1O (stereo not given in full),0.264 µM,5.17 µM,,12.5 µM,,43 µM,0.44 µM,10.5 µM,,> 65.2 µM,,17.4 µM,,> 100 µM,,29.5 µM,,19.2 µM,,14.8 µM
